In one series the test system is aldosterone. Briefly: Aldosterone-antagonistic activity in adrenalectomised rats (urine volume, sodium and potassium excretion). The class given is in vivo, Female Holtzmann rats. To be noted: for Volume (urine volume) in %, based on control animals / [K+] (potassium excretion) in %, based on control animals / [Na+] (sodium excretion) in %, based on control animals: 1 mg/kg p.o., 30 min before aldosterone s.c., urine collected 3 hours, vs animals treated only with aldosterone. As for the experimental part:
If compounds of formula I are administered to the animals before the treatment with aldosterone, then there is observed, in comparison to animals which are treated only with aldosterone (control animals), a pronounced increase of the sodium excretion (i.e. the sodium retention caused by aldosterone is antagonised), whereas the potassium excretion and the urine volume are influenced to a lesser extent.
The standard experiment is carried out as follows:
Female Holtzmann rats (150-180 g) are bilaterally adrenalectomised 70 to 74 hours before the beginning of the experiment. After the operation, the animals receive a customary rat dry feed and 0.9% sodium chloride solution for drinking. 16-17 hours before the beginning of the experiment the feed is removed from the animals, but they can subsequently drink, as before, 0.9% sodium chloride solution ad libitum. At the beginning of the experiment the substance to be tested as an aldosterone-antagonist is administered to the animals by means of a stomach probe. 30 minutes later the animals receive a subcutaneous injection of […] of aldosterone. After a further 90 minutes, the urinary bladders of the animals are emptied by careful suprapubic pressure, whereupon the animals are placed individually in metabolic cages without food and without drink. The urine of the animals is then collected for 3 hours, whereupon their urinary bladders are once more emptied. The spontaneously excreted urine and the remaining urine obtained at the conclusion of the experiment by pressing-out the urinary bladders are collected in graduated centrifuge glasses. Sodium and potassium concentrations in the urine are determined with a flame photometer.
(§1) The following Table contains results obtained in the previously described experiment with representative compounds of formula I. In this Table there are given for each of the compounds in question the dosage administered (in mg/kg p.o.) as well as the percentage variation in the urine volume, the sodium excretion and the potassium excretion in comparison with the control animals (i.e. in comparison with the animals treated only with aldosterone). Moreover, the Table contains data concerning the acute toxicity of the compounds investigated (LD 50 in mg/kg in the case of single oral administration to mice).

A short description of series [1]: Acute toxicity, single oral administration to mice. To be noted: mouse, in vivo, single oral administration (p.o.).
From the text: as §1

In general, LD50 refers to the dose at which mortality reaches 50%.

`C[C@]12CCC(=O)C=C1CC[C@@H]1[C@@H]2[C@@H](O)C[C@]2(C=O)[C@@H](C(=O)CO)CC[C@@H]12` [aldosterone, reference compound]: in the series with aldosterone (vs untreated animals, in words), the “excreted urine volume after aldosterone” value is reported as “reduction of the excreted urine volume”, the “potassium excretion after aldosterone” value was “increased potassium excretion” and the “sodium excretion after aldosterone” value is given as “pronounced reduction of the sodium excretion”.

`CCN1C(=O)CNC(c2ccccc2F)c2cc(C(C)N(C)C)ccc21` (stereo not drawn) [Example 7a, 7-[1-(dimethylamino)ethyl]-1-ethyl-5-(o-fluorophenyl)-1,3,4,5-tetrahydro-2H-1,4-benzodiazepin-2-one] displayed an LD50 in series [1] of 500 mg/kg. In the series on aldosterone, the “Volume (urine volume) in %, based on control animals” value (shortened to “Volume (urine volume) in %, based”) is listed as 147%; the “[K+] (potassium excretion) in %, based on control animals” value (“[K+] (potassium excretion) in %, based” for short) was found to be 90%; the “[Na+] (sodium excretion) in %, based on control animals” value (“[Na+] (sodium excretion) in %, based” for short) is 252%.

`CCN1C(=O)CNC(c2ccccc2F)c2cc(C(C)NCCO)ccc21` (stereo not drawn) [Example 6, 1-ethyl-5-(o-fluorophenyl)-1,3,4,5-tetrahydro-7-/1-[(2-hydroxyethyl)-amino]ethyl/-2H-1,4-benzodiazepin-2-one] showed an LD50 in series [1] of 4000 mg/kg. Moreover, in the series on aldosterone, the “Volume (urine volume) in %, based” value amounted to 150%; the “[K+] (potassium excretion) in %, based” value is listed as 93%; the “[Na+] (sodium excretion) in %, based” value worked out at 306%.

Regarding `CN1C(=O)CN=C(c2ccccc2)c2cc(CNC(=O)NCCO)ccc21` [Example 22, 1-[(2,3-dihydro-1-methyl-2-oxo-5-phenyl-1H-1,4-benzodiazepin-7-yl)methyl]-3-(2-hydroxyethyl)urea], the LD50 in series [1] was > 5000 mg/kg. For the same compound, in the series with aldosterone, the “Volume (urine volume) in %, based” value is listed as 130%; the “[K+] (potassium excretion) in %, based” value is reported as 82%; the “[Na+] (sodium excretion) in %, based” value stood at 224%.

For the compound `CC1N=C(c2ccccc2F)c2cc(C(C)N)ccc2N(C)C1=O` (stereo not drawn) [Example 2, 7-(1-aminoethyl)-5-(o-fluorophenyl)-1,3-dihydro-1,3-dimethyl-2H-1,4-benzodiazepin-2-one], the LD50 in series [1] came out at 625 mg/kg. Besides, in the series on aldosterone, the “Volume (urine volume) in %, based” value is 169%; the “[K+] (potassium excretion) in %, based” value is given as 102%; the “[Na+] (sodium excretion) in %, based” value was 298%.

`CCN1C(=O)CN=C(c2ccccc2F)c2cc(C(C)OCOC)ccc21` (stereo not drawn) [Example 9a, 1-ethyl-5-(o-fluorophenyl)-1,3-dihydro-7-[1-(methoxymethoxy)ethyl]-2H-1,4-benzodiazepin-2-one]: the LD50 in series [1] was determined as 500 mg/kg. Besides, in the series on aldosterone, the “Volume (urine volume) in %, based” value turned out to be 138%; the “[K+] (potassium excretion) in %, based” value is 93%; the “[Na+] (sodium excretion) in %, based” value is recorded as 359%.

Regarding `CCN1C(=O)CNC(c2ccccc2F)c2cc(C(C)=NO)ccc21` (stereo not drawn) [Example 5], the LD50 in series [1] was > 5000 mg/kg. In the series on aldosterone, the “Volume (urine volume) in %, based” value is listed as 157%; the “[K+] (potassium excretion) in %, based” value amounted to 87%; the “[Na+] (sodium excretion) in %, based” value is 247%.

The values above are taken from patent US4327026A, “Benzodiazepine derivatives” (Hoffmann-La Roche Inc., priority 1980, dated 1982).
